{"source": "patent US8552013B2", "about": "“Heterocyclic compounds based on N6-substituted adenine, methods of their preparation, their use for preparation of drugs, cosmetic preparations and growth regulators, pharmaceutical preparations, cosmetic preparations and growth regulators containing these compounds” (USTAV Experimentalni Botaniky Akademie Ved Ceske Republiky, priority 2001, dated 2013)", "key": {"[1]": {"test_system": "Rosa hybrida 'Pailin' explants", "test": "Early shoot senescence of tissue cultured roses", "type": "in vivo", "conditions": "for relative number of dead plants in relation to culture time: 10 μM in medium", "procedure": "Rosa hybrida ‘Pailin’ (a cut rose) was cultured in 350 ml vessels with a screw on polycarbonate lid. Each culture vessel contained 100 ml autoclaved medium (120° C., 20 min). The cultures were maintained at 23±2° C. under a 16 h photoperiod at 40 μM m^−2 s^−1 PAR. The basal medium (BMR) contained Murashige and Skoog (1962) macroelements, microelements and vitamins, 36.7 mg/l NaFeEDTA, 50 mg/l NaFeEDDHA, 100 mg/l […] myo-inositol, 30 g/l sucrose, 100 mg/l glycine, 50 mg/l calcium pantothenate, 100 mg/l L-glutamine and 7 g/l agar-agar. This medium was supplemented with 10 μM BA, mT and mMeOBAP. The last 2 cytokinins were filter sterilised and added after autoclaving the medium in the vessels. The control medium didn't contain any cytokinin. After a culture period of 6 weeks, scoring senescence symptoms was started."}, "[2]": {"test_system": "Rosa hybrida (pot rose cultivar) explants", "test": "In vitro and post vitro shoot multiplication and rooting of rose", "type": "in vivo", "conditions": "for Root number per plant / Total root length per plant: Ex vitro, four weeks of acclimatising; for Flower number per explant / Number of new shoots per explant / Root number per explant / Total root length per explant: In vitro, 10 μM, 8 weeks", "procedure": "The aim of this experiment was to test whether the new compounds are of practical use in tissue culture practice. The multiplication rate was investigated and the post vitro effects on rooting were examined. Rosa hybrida (pot rose cultivar) was cultured in 350 ml vessels with a screw on polycarbonate lid. Each culture vessel contained 100 ml autoclaved medium (120° C., 20 min). The cultures were maintained at 23±2° C. under a 16 h photoperiod at 40 μM m^−2 s^−1 PAR. The basal medium (BMR) contained Murashige and Skoog (1962) macroelements, microelements and vitamins, 95 μM NaFeEDTA, 555 μM myo-inositol, 111 mM sucrose, 1.332 mM glycine, 684 μM L-glutamine and 7 g/l agar. This medium was supplemented with 10 μM BA, mT, oMeOBAP or mMeOBAP (compound no. 14 and 15, respectively). The control medium didn't contain any cytokinin. After a culture period of 8 weeks, the number of induced shoots per explant was determined, as well as root number/explant and total root length/explant. The roots were removed and the explants (shoot clusters) were planted in unfertilised peat. After four weeks of acclimatising in a fog unit, root number and root length was determined."}, "[3]": {"test_system": "lysosomes of fibroblast cells", "test": "Lysosomal activity, neutral red uptake", "type": "cell-based, human", "conditions": "pre-treated fibroblasts", "procedure": "Neutral Red is preferentially taken up into the lysosomes of the cell. Fibroblast cells are maintained in culture and exposed to test compounds over a range of concentrations. The cultures are visually examined after 72 hours, and the number of viable cells and/or the total cell protein content determined, after 72 hours exposure, by the Neutral Red Uptake method. Advantage of Neutral Red assay is that it detects only viable cells. Any chemical having a localized effect upon the lysosomes will, therefore, result in an artificially low (or possibly high) reflection of cell viability and cell number. This factor does, however, make the system useful to detect those compounds which selectively affect the lysosomes, especially when it is used in conjunction with other tests capable of determining cell number.\nThe NR assay has been applied to evaluation and ranking the cytotoxicity of a spectrum of compounds. Individual wells of a 96-well tissue culture microtiter plate were inoculated with 0.2 ml of the appropriate media containing cells (usually 3×10^3 cells). After 1 to 2 days of incubation, the media were removed and replaced with unamended (control) medium or with medium amended with varied concentrations of the compound to be tested. After 3 days of exposure to the compound, media were removed and replaced with media containing 0.001% NR. The assay plate was then returned to the incubator for another 3 h to allow for uptake of the supravital dye into the lysosomes of viable cells. Thereafter, the media were removed and the cells were rapidly washed with 0.5% formaldehyde-1% CaCl2 followed by 0.2 ml of a solution of 1% acetic acid-50% ethanol to extract the dye from the cells. After 10 min at room temperature and a brief but rapid agitation on a microtiter plate shaker, the plates were transferred to a microplate spectrophotometer equipped with a 540-nm filter to measure the absorbance of the extracted dye.\nThe toxicities of the various compounds were compared with those of the control cultures by computing the data obtained."}, "[4]": {"test_system": "human adult skin fibroblasts", "test": "Short-term growth of human skin fibroblasts (cell counts, Giemsa)", "type": "cell-based", "conditions": "for Cell growth versus untreated: 40 μM and 80 μM; for Cell proliferation (summary): all concentrations (40, 80, 200 and 500 μM); for appearance of dermal cells (summary): all doses 40, 80, 200 and 500 μM; for Cellular growth at higher concentrations: para 200 to 500 μM after 11 days, ortho 200 and 400 μM after 7 days, meta 400 μM", "procedure": "All experiments were performed on early and mid passage cultures (about 20 to 40% lifespan completed) of normal human adult skin fibroblast line; designated ASF-2 & Senetek cell line (about 10-90% lifespan completed); designated as SF20. In order to check the effects of test compounds on senescent cells, late passage cells with more than 95% lifespan completed were used. ASF-2 and SF20 cell lines were established from a mammary skin biopsy obtained from a young, non-smoking and healthy […] at the time of breast reduction operation. Normal culture conditions of medium (DMEM) containing antibiotics, 10% foetal calf serum, and incubation at 37° C. with 95% humidity were used. The effects of the test chemicals were determined in the following conditions:\nShort-term growth experiments were performed using 24-well tissue culture plates (growth area 1.9 cm^2). Freshly prepared cell suspensions from mass cultures of ASF-2 cells maintained in our labs were used. About 10,000 cells were seeded into 6 sets of 24-well plates. The cells were allowed to attach and stabilize for 24 hr in normal culture medium to achieve various final concentrations (range 40 to 500 μM). Culture medium was changed with the addition of test chemicals twice a week. The numbers of cells were counted after different days of treatment in 2 wells from each concentration of the test chemical, by following the normal method of cell trypsinization and counting using a Coultercounter. The third well in each category was fixed by cold methanol and stained with Giemsa stain for permanent record and for photography. The experiment was carried on for until the cultures became fully confluent and no further growth was possible."}, "[5]": {"test_system": "senescent human skin fibroblasts", "test": "Actin staining of senescent cells (FITC-Phalloidin)", "type": "cell-based", "conditions": "after 3 days; meta 40 μM", "description": "Actin staining: The pattern of cytoskeletal actin staining was studied by staining the cells with florescent ligand FITC-labelled Phalloidin, using a fluorescence microscope"}, "proteasome": {"test_system": "proteasome", "test": "Proteasomal chymotrypsin-like activity in cell extracts of treated cells", "type": "cell-based, human", "conditions": "40, 80 and 200 μM", "procedure": "Chymotrypsin-like activity in cell extracts prepared from treated and untreated cells was determined by in vitro degradation of oligopeptides by the proteasome."}, "human skin fibroblasts [6]": {"test_system": "human skin fibroblasts", "test": "Apoptosis assay in treated skin fibroblasts", "type": "cell-based", "conditions": "3 days of treatment; ortho 200 μM"}, "human skin fibroblasts [7]": {"test_system": "human skin fibroblasts", "test": "beta-galactosidase staining of treated skin fibroblasts", "type": "cell-based", "conditions": "short-term growth treatment"}}, "data": [{"compound": "COc1cccc(CNc2ncnc3nc[nH]c23)c1", "note": "[6-(3-methoxybenzylamino)purine]", "values": [{"measurement": "relative number of dead plants in relation to culture time", "setting": "[1]", "result": "the situation improved"}, {"measurement": "plants alive", "setting": "[1]; 10 μM, after 121 days", "result": "almost all plants were still alive"}, {"measurement": "Root number per plant", "setting": "[2]", "result": 1.7}, {"measurement": "Total root length per plant", "setting": "[2]", "result": 4.1, "unit": "cm"}, {"measurement": "Flower number per explant", "setting": "[2]", "result": 0.03}, {"measurement": "Number of new shoots per explant", "setting": "[2]", "result": 4.3}, {"measurement": "Root number per explant", "setting": "[2]", "result": 0.0}, {"measurement": "Total root length per explant", "setting": "[2]", "result": 0.0, "unit": "cm"}]}, {"compound": "Oc1cccc(CNc2ncnc3nc[nH]c23)c1", "note": "[meta-topolin, 6-(3-hydroxybenzylamino)purine]", "values": [{"measurement": "relative number of dead plants in relation to culture time", "setting": "[1]", "result": "the situation improved"}, {"measurement": "Root number per plant", "setting": "[2]", "result": 1.4}, {"measurement": "Total root length per plant", "setting": "[2]", "result": 3.8, "unit": "cm"}, {"measurement": "Flower number per explant", "setting": "[2]", "result": 0.16}, {"measurement": "Number of new shoots per explant", "setting": "[2]", "result": 2.1}, {"measurement": "Root number per explant", "setting": "[2]", "result": 0.0}, {"measurement": "Total root length per explant", "setting": "[2]", "result": 0.0, "unit": "cm"}, {"measurement": "Cleaning up of cytoplasmic debris (macro-molecular turn-over rate), summary", "setting": "[3]", "result": "No such effective removal was observed"}, {"measurement": "Cell growth versus untreated", "setting": "[4]", "result": "almost similar"}, {"measurement": "rate of growth", "setting": "[4]; 200 μM", "result": "slowed down"}, {"measurement": "Cell proliferation (summary)", "setting": "[4]", "result": "declined to a significant extent"}, {"measurement": "appearance of dermal cells (summary)", "setting": "[4]", "result": "morbid in appearance"}, {"measurement": "Cellular growth at higher concentrations", "setting": "[4]", "result": "almost no growth"}, {"measurement": "actin staining pattern in senescent cells", "setting": "[5]", "result": "depolymerised actin filaments to some extent"}, {"measurement": "proteasomal activity (chymotrypsin-like), removal of oxidized and abnormal proteins", "setting": "proteasome", "result": "failed to show such an effect"}, {"measurement": "apoptosis assay", "setting": "human skin fibroblasts [6]", "result": "cell death at 40 μM and above"}]}, {"compound": "Oc1ccccc1CNc1ncnc2nc[nH]c12", "note": "[ortho-topolin, 6-(2-hydroxybenzylamino)purine]", "values": [{"measurement": "number of prematurely senescent cells, beta-galactosidase staining", "setting": "human skin fibroblasts [7]", "result": "did not show any increase"}, {"measurement": "Cleaning up of cytoplasmic debris (macro-molecular turn-over rate), summary", "setting": "[3]", "result": "No such effective removal was observed"}, {"measurement": "Cell growth versus untreated", "setting": "[4]", "result": "almost similar"}, {"measurement": "Cell proliferation (summary)", "setting": "[4]", "result": "declined to a significant extent"}, {"measurement": "appearance of dermal cells (summary)", "setting": "[4]", "result": "morbid in appearance"}, {"measurement": "Cellular growth at higher concentrations", "setting": "[4]", "result": "almost a total inhibition"}, {"measurement": "actin staining pattern in senescent cells", "setting": "[5]", "result": "no obvious differences"}, {"measurement": "proteasomal activity (chymotrypsin-like), removal of oxidized and abnormal proteins", "setting": "proteasome", "result": "failed to show such an effect"}, {"measurement": "apoptosis assay", "setting": "human skin fibroblasts [6]", "result": "some induction of apoptosis"}]}]}
